#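 1) Cells in 96-well plates. 2) Compound, 48 h, 5 concentrations. 3) Linear interpolation between surrounding doses. 4) Unreached endpoint = highest concentration. GI50 = concentration required for 50% inhibition of growth.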 Active and inactive are the calls of the source. Cut-off read from the data, not from the text of the source: active = GI50 up to about 1.1 µM and inactive = higher.
# Columns and labels:
# Test in all cases: NCI tumour cell line growth inhibition, 48 h
# OVCAR-5 = system: OVCAR-5
# NCI-H522 = system: NCI-H522
# 786-0 = system: 786-0
# MDA-MB-435 = system: MDA-MB-435
# HCT-116 = system: HCT-116
# SF-539 = system: SF-539
# MOLT-4 = system: MOLT-4
# HOP-92 = system: HOP-92
# LOX IMVI = system: LOX IMVI
# COLO 205 = system: COLO 205
# SK-MEL-5 = system: SK-MEL-5
# T47D = system: T47D
# OVCAR-8 = system: OVCAR-8
# OVCAR-4 = system: OVCAR-4
# SNB-75 = system: SNB-75
# CAKI-1 = system: CAKI-1
# MCF7 = system: MCF7
# EKVX = system: EKVX
# SF-295 = system: SF-295
# HCT-15 = system: HCT-15
Structure (SMILES),GI50 (OVCAR-5),GI50 (NCI-H522),GI50 (786-0),GI50 (MDA-MB-435),GI50 (HCT-116),GI50 (SF-539),GI50 (MOLT-4),GI50 (HOP-92),GI50 (LOX IMVI),GI50 (COLO 205),GI50 (SK-MEL-5),GI50 (T47D),GI50 (OVCAR-8),GI50 (OVCAR-4),GI50 (SNB-75),GI50 (CAKI-1),GI50 (MCF7),GI50 (EKVX),GI50 (SF-295),GI50 (HCT-15)
Clc1ccc(/C=N/C23CC4CC(CC(C4)C2)C3)cc1Cl,> 10 µM (inactive),> 10 µM (inactive),> 10 µM (inactive),> 10 µM (inactive),> 10 µM (inactive),> 10 µM (inactive),> 10 µM (inactive),> 10 µM (inactive),> 10 µM (inactive),> 10 µM (inactive),> 10 µM (inactive),> 10 µM (inactive),> 10 µM (inactive),> 10 µM (inactive),> 10 µM (inactive),> 10 µM (inactive),> 10 µM (inactive),> 10 µM (inactive),> 10 µM (inactive),> 10 µM
C/C=C/OC1C(C2COC(C)(C)O2)OC2OC(C)(C)OC21 (stereo unspecified),> 100 µM (inactive),> 100 µM (inactive),> 100 µM (inactive),> 100 µM (inactive),> 100 µM (inactive),> 100 µM (inactive),> 100 µM (inactive),> 100 µM (inactive),> 100 µM (inactive),–,> 100 µM (inactive),> 100 µM (inactive),> 100 µM (inactive),> 100 µM (inactive),> 100 µM (inactive),> 100 µM (inactive),> 100 µM (inactive),> 100 µM (inactive),> 100 µM (inactive),> 100 µM
COc1ccc2c(c1)CCc1c-2n(CCN(C)C)c2ccc(OC)cc12,16.8 µM (inactive),10 µM (inactive),27.2 µM (inactive),6.32 µM (inactive),5.33 µM (inactive),–,10.2 µM (inactive),94.2 µM (inactive),7.89 µM (inactive),4.38 µM (inactive),12.4 µM (inactive),15.5 µM (inactive),20.7 µM (inactive),25.4 µM (inactive),21.2 µM (inactive),22.1 µM (inactive),16.4 µM (inactive),31.2 µM (inactive),18.3 µM (inactive),11.4 µM
O=C1C(Cl)=C(N2CCN(C3=C(Cl)C(=O)c4ccccc4C3=O)CC2)C(=O)c2ccccc21,6.64 µM (inactive),0.652 µM (active),1.82 µM (inactive),1.86 µM (inactive),1.44 µM (inactive),1.73 µM (inactive),0.232 µM (active),1.04 µM (active),1.71 µM (inactive),1.69 µM (inactive),1.79 µM (inactive),0.729 µM (active),1.69 µM (inactive),1.58 µM (inactive),2.86 µM (inactive),1.79 µM (inactive),1.72 µM (inactive),1.79 µM (inactive),7.62 µM (inactive),1.61 µM
O=C1Nc2ccccc2/C1=N/Nc1ccc([N+](=O)[O-])cc1,20.4 µM (inactive),11.1 µM (inactive),13.8 µM (inactive),40.3 µM (inactive),20.7 µM (inactive),3.83 µM (inactive),21.1 µM (inactive),–,21.5 µM (inactive),93.5 µM (inactive),35.6 µM (inactive),7.62 µM (inactive),11.5 µM (inactive),14.4 µM (inactive),12.3 µM (inactive),15.5 µM (inactive),37.8 µM (inactive),8.93 µM (inactive),16.9 µM (inactive),30.3 µM
CC1=NOC(=O)/C1=C/c1ccc2c(c1)OCO2,37.1 µM (inactive),38.5 µM (inactive),21.9 µM (inactive),23.4 µM (inactive),34 µM (inactive),24.3 µM (inactive),–,30.2 µM (inactive),19 µM (inactive),17.7 µM (inactive),34.1 µM (inactive),> 100 µM (inactive),25.4 µM (inactive),63.1 µM (inactive),22.1 µM (inactive),17.3 µM (inactive),30.2 µM (inactive),77.3 µM (inactive),26.7 µM (inactive),20.8 µM
CC(=C(C(N)=O)C(N)=O)C1C=C(c2cccs2)CC(c2ccc(Cl)cc2)=C1O (stereo unspecified),> 100 µM (inactive),30.3 µM (inactive),36.7 µM (inactive),42.2 µM (inactive),8.85 µM (inactive),–,21.9 µM (inactive),85.9 µM (inactive),19.8 µM (inactive),42 µM (inactive),20.3 µM (inactive),9.84 µM (inactive),73.6 µM (inactive),5.51 µM (inactive),90.6 µM (inactive),44.3 µM (inactive),8.95 µM (inactive),> 100 µM (inactive),82.8 µM (inactive),20.9 µM
CN(NC(=O)c1ccco1)C1=NCCN1,> 100 µM (inactive),> 100 µM (inactive),> 100 µM (inactive),> 100 µM (inactive),> 100 µM (inactive),> 100 µM (inactive),> 100 µM (inactive),> 100 µM (inactive),> 100 µM (inactive),> 100 µM (inactive),> 100 µM (inactive),> 100 µM (inactive),> 100 µM (inactive),> 100 µM (inactive),> 100 µM (inactive),–,> 100 µM (inactive),> 100 µM (inactive),> 100 µM (inactive),> 100 µM
CCC1c2[nH]c3ccccc3c2C[C@H]2C(=O)NC(CCCCNC(=O)OC(C)(C)C)C(=O)N12 (stereo partly specified),68.4 µM (inactive),20.7 µM (inactive),22.2 µM (inactive),20.5 µM (inactive),26.1 µM (inactive),–,19.1 µM (inactive),34 µM (inactive),24.8 µM (inactive),29.9 µM (inactive),20.7 µM (inactive),31 µM (inactive),33 µM (inactive),28.2 µM (inactive),15.3 µM (inactive),25.9 µM (inactive),35.8 µM (inactive),42 µM (inactive),22.9 µM (inactive),31 µM
CCOP(=O)(OCC)C1(O)CC(n2cc(C)c(=O)[nH]c2=O)OC1CO (stereo unspecified),> 100 µM (inactive),> 100 µM (inactive),> 100 µM (inactive),> 100 µM (inactive),> 100 µM (inactive),> 100 µM (inactive),–,> 100 µM (inactive),> 100 µM (inactive),> 100 µM (inactive),> 100 µM (inactive),> 100 µM (inactive),> 100 µM (inactive),> 100 µM (inactive),> 100 µM (inactive),> 100 µM (inactive),> 100 µM (inactive),> 100 µM (inactive),> 100 µM (inactive),> 100 µM
CCOC(=O)Cn1c(=O)c2nc(SC)sc2n(CC)c1=S,> 100 µM (inactive),> 100 µM (inactive),0.173 µM (active),1.71 µM (inactive),> 100 µM (inactive),> 100 µM (inactive),> 100 µM (inactive),82.6 µM (inactive),> 100 µM (inactive),> 100 µM (inactive),> 100 µM (inactive),61 µM (inactive),> 100 µM (inactive),59.8 µM (inactive),9.38 µM (inactive),–,> 100 µM (inactive),–,> 100 µM (inactive),65.5 µM
FC1=C2CCCCCC2SC1(F)F (stereo unspecified),> 100 µM (inactive),15.6 µM (inactive),> 100 µM (inactive),26.4 µM (inactive),37.8 µM (inactive),–,16.4 µM (inactive),7.18 µM (inactive),15.7 µM (inactive),19.1 µM (inactive),> 100 µM (inactive),> 100 µM (inactive),70.3 µM (inactive),> 100 µM (inactive),> 100 µM (inactive),35.6 µM (inactive),71.9 µM (inactive),> 100 µM (inactive),> 100 µM (inactive),34.4 µM
Oc1c(Br)cc(CN(Cc2cc(Br)c(O)c(Br)c2)C2CCCCC2)cc1Br,> 100 µM (inactive),> 100 µM (inactive),> 100 µM (inactive),> 100 µM (inactive),> 100 µM (inactive),–,> 100 µM (inactive),> 100 µM (inactive),> 100 µM (inactive),> 100 µM (inactive),> 100 µM (inactive),> 100 µM (inactive),> 100 µM (inactive),> 100 µM (inactive),> 100 µM (inactive),> 100 µM (inactive),> 100 µM (inactive),> 100 µM (inactive),> 100 µM (inactive),> 100 µM
CC1(C)C(OC(=O)c2ccccc2)C[C@]23CCC[C@](C)(C[C@@H](O)C12)C3 (stereo partly specified),15.3 µM (inactive),15.5 µM (inactive),19.6 µM (inactive),18 µM (inactive),13.9 µM (inactive),–,10.5 µM (inactive),16 µM (inactive),17 µM (inactive),17.5 µM (inactive),13.1 µM (inactive),19.9 µM (inactive),16.7 µM (inactive),23.1 µM (inactive),18.9 µM (inactive),19.9 µM (inactive),16.4 µM (inactive),19.9 µM (inactive),13.9 µM (inactive),18.4 µM
CC(=O)OC12c3ccccc3-c3ccccc3C1C1C(=O)OC(=O)C12 (stereo unspecified),> 10 µM (inactive),> 10 µM (inactive),> 10 µM (inactive),> 10 µM (inactive),–,> 10 µM (inactive),> 10 µM (inactive),> 10 µM (inactive),> 10 µM (inactive),> 10 µM (inactive),> 10 µM (inactive),> 10 µM (inactive),> 10 µM (inactive),> 10 µM (inactive),> 10 µM (inactive),> 10 µM (inactive),> 10 µM (inactive),> 10 µM (inactive),> 10 µM (inactive),> 10 µM

# Source: ChEMBL document CHEMBL1201862, “PubChem BioAssay data set” (2004)
